According to patent publication US8975371B2, “Melanoma antigen peptide and uses thereof” (INSERM (Institut National de la Sante et de la Recherche …, priority 2008, dated 2015):
Like-named read-outs stand apart in the source and are kept apart here.

How the values were obtained:
Format in all cases: cell-based, human
[1] = test system: M170.51 CTL clone / peptide-pulsed T2 cells; test: Cytotoxicity of M170.51 CTL clone against peptide-pulsed T2 cells (4 h 51Cr release); settings: peptide loaded on T2 cells
Method: (§1) (A) Structure of meloe cDNA. Black boxes correspond to ORFs tested for recognition by the CTL clone. (B) M170.48 and M170.51 TNF responses to COS-7 cells (E/T ratio 1/3) transfected with indicated plasmids. T cell clone was added 2 days after the transfection and the CTL clone reactivity was assessed by a TNF release assay. (C) Amino acid sequences of the ORF 1230-1370 and the ORF 285-404 of meloe isolated from M134 cDNA library. (D and E) Cytotoxicity of M170.48 CTL clone (D) and M170.51 CTL clone(E) against peptide-pulsed T2 cells. Target cells were chromium labeled for 60 min and incubated for 30 min with a range of the indicated peptides. T cell clones were added at an E/T ratio of 10/1 and chromium release was then measured after a 4 h incubation period.
(§2) Cytotoxic activity of T cells was measured in a standard 4-h assay against ^51Cr-labeled cells (peptide-loaded T2 cells or tumor cell lines) (23). […] After staining, cells were resuspended in PBS and analyzed on a LSR flow cytometer using Cell Quest software. […]

[2] = test system: MELOE-1 specific T cell clones / peptide-loaded T2 cells; test: Relative avidity of MELOE-1 specific T cell clones, 4-h 51Cr assay against peptide-loaded T2 cells
Method: Cytotoxicity of MELOE-1 specific CTL clones against peptide-pulsed T2 cells. Target cells were chromium labeled for 60 min and incubated for 30 min with a range of the MELOE-136-44 peptide. T cell clones derived from healthy donors (A), melanoma patients PBMC (B) and TIL (C) were added at an E/T ratio of 10/1 and chromium release was then measured after a 4 h incubation period. (D) Mean EC50 of the MELOE-1 specific T cell clones in response to the MELOE-136-44 peptide, according to their origin. EC50 were compared using statistical analysis done with InStat 2.01. Data were analyzed using Kruskal-Wallis comparison test. *p=0.019, considered significant.
The relative avidity of […] specific T cell clones and their anti-tumor reactivity was measured respectively in a standard 4-h assay against ^51Cr-labeled peptide-loaded T2 cells and towards HLA-A2 melanoma cell lines. Briefly, target cells (peptide pulsed-T2 or melanoma cells) were incubated with 100 μCi Na2^51CrO4 (Oris Industrie, Gif-sur-Yvette, France) at 37° C. for 1 h. For peptide recognition assays, T2 cells were preincubated with a range of […] peptide concentrations for 1 h at 37° C. […] Data were analyzed using Kruskal-Wallis comparison test, followed by Dunn'post test. […]

[3] = test system: M170.48 CTL clone / peptide-pulsed T2 cells; test: Cytotoxicity of M170.48 CTL clone against peptide-pulsed T2 cells (4 h 51Cr release); settings: peptide loaded on T2 cells
Method: as §1, §2

Row | Sequence | recognition by M170.51 T cell clone [1] | EC50 ([1]; M170.51 CTL clone, E/T ratio 10/1, 4 h chromium release, read-out: half maximal lysis (converted)) | EC50 ([2]; healthy donor clonotype HD1.21, read-out: EC50 of clonotype HD1.21) | EC50 ([2]; healthy donor clonotype HD3.38, read-out: EC50 of clonotype HD3.38) | recognition by M170.48 T cell clone [3] | EC50 ([3]; M170.48 CTL clone, E/T ratio 10/1, 4 h chromium release, read-out: half maximal lysis)
1 | RCPPKPPLA | recognized | 50 nM |  |  |  | 
2 | TLNDECWPA |  |  | 10 nM | 1 nM | recognized | 10 nM
